Laboratory results reported in ChEMBL document CHEMBL1134027, “An improved method for the rapid preparation of 2-amino-4,4a-dihydro-4a,7-dimethyl-3H-phenoxazine-3-one, a novel antitumor agent” (2001).

Assays:
Assay type in all cases: functional
HL-60 [1] = experiment: Inhibition of incorporation of [3H]thymidine into DNA of human myeloid leukemia HL-60 cell at 0 uM after 1 hr
HL-60 [2] = experiment: Inhibition of incorporation of [3H]thymidine into DNA of human myeloid leukemia HL-60 cell at 0 uM after 2 hr
HL-60 [3] = experiment: Inhibition of incorporation of [3H]-thymidine into DNA of human myeloid leukemia HL-60 cell at 0 uM after 4 hr
HL-60 [4] = experiment: Inhibition of incorporation of [3H]thymidine into DNA of human myeloid leukemia HL-60 cell at 0 uM after 8 hr
HL-60 [5] = experiment: Inhibition of incorporation of [3H]thymidine into DNA of human myeloid leukemia HL-60 cell at 100 uM after 1 hr
HL-60 [6] = experiment: Inhibition of incorporation of [3H]thymidine into DNA of human myeloid leukemia HL-60 cell at 100 uM after 2 hr
HL-60 [7] = experiment: Inhibition of incorporation of [3H]-thymidine into DNA of human myeloid leukemia HL-60 cell at 100 uM after 4 hr
HL-60 [8] = experiment: Inhibition of incorporation of [3H]thymidine into DNA of human myeloid leukemia HL-60 cell at 100 uM after 8 hr
HL-60 [9] = experiment: Inhibition of incorporation of [3H]thymidine into DNA of human myeloid leukemia HL-60 cell at 200 uM after 2 hr
HL-60 [10] = experiment: Inhibition of incorporation of [3H]thymidine into DNA of human myeloid leukemia HL-60 cell at 200 uM after 4 hr
HL-60 [11] = experiment: Inhibition of incorporation of [3H]thymidine into DNA of human myeloid leukemia HL-60 cell at 200 uM after 8 hr
[12] = Inhibition of incorporation of [3H]thymidine into DNA of human lymphoid leukemia HAL-01 cell at 0 uM after 2 hr
[13] = Inhibition of incorporation of [3H]thymidine into DNA of human lymphoid leukemia HAL-01 cell at 0 uM after 4 hr
[14] = Inhibition of incorporation of [3H]thymidine into DNA of human lymphoid leukemia HAL-01 cell at 0 uM after 8 hr
[15] = Inhibition of incorporation of [3H]thymidine into DNA of human lymphoid leukemia HAL-01 cell at 100 uM after 1 hr
[16] = Inhibition of incorporation of [3H]thymidine into DNA of human lymphoid leukemia HAL-01 cell at 100 uM after 2 hr
[17] = Inhibition of incorporation of [3H]thymidine into DNA of human lymphoid leukemia HAL-01 cell at 100 uM after 4 hr
[18] = Inhibition of incorporation of [3H]thymidine into DNA of human lymphoid leukemia HAL-01 cell at 100 uM after 8 hr
[19] = Inhibition of incorporation of [3H]thymidine into DNA of human lymphoid leukemia HAL-01 cell at 200 uM after 1 hr
[20] = Inhibition of incorporation of [3H]thymidine into DNA of human lymphoid leukemia HAL-01 cell at 200 uM after 2 hr
[21] = Inhibition of incorporation of [3H]thymidine into DNA of human lymphoid leukemia HAL-01 cell at 200 uM after 4 hr
[22] = Inhibition of incorporation of [3H]thymidine into DNA of human lymphoid leukemia HAL-01 cell at 200 uM after 8 hr
HL-60 [23] = experiment: Inhibition of incorporation of [3H]thymidine into DNA of human myeloid leukemia HL-60 cell at 200 uM after 1 hr
[24] = Inhibition of incorporation of [3H]thymidine into DNA of human lymphoid leukemia HAL-01 cell at 0 uM after 1 hr

Cc1ccc2c(c1)OC1(C)CC(=O)C(N)=CC1=N2 (centres undefined)
No. of cells (HL-60 [1]): 0 | No. of cells (HL-60 [2]): 21000 | No. of cells (HL-60 [3]): 25000 | No. of cells (HL-60 [4]): 35000 | No. of cells (HL-60 [5]): 0 | No. of cells (HL-60 [6]): 14000 | No. of cells (HL-60 [7]): 15000 | No. of cells (HL-60 [8]): 19000 | No. of cells (HL-60 [9]): 6000 | No. of cells (HL-60 [10]): 9000 | No. of cells (HL-60 [11]): 12000 | No. of cells [12]: 25000 | No. of cells [13]: 34000 | No. of cells [14]: 40000 | No. of cells [15]: 0 | No. of cells [16]: 17000 | No. of cells [17]: 18000 | No. of cells [18]: 19000 | No. of cells [19]: 0 | No. of cells [20]: 9000 | No. of cells [21]: 10000 | No. of cells [22]: 14000 | No. of cells (HL-60 [23]): 0 | No. of cells [24]: 0
